Source: ChEMBL document CHEMBL4706501, “Drug repurposing: Discovery of troxipide analogs as potent antitumor agents” (Eur J Med Chem, 2020)
pIC50: −log10 of the molar value.

Assays:
Assay type in all cases: functional, cell-based
PC-3 = assay: Antiproliferative activity against human PC3 cells assessed as reduction in cell viability after 24 to 72 hrs by MTT assay
PC-9 = assay: Antiproliferative activity against human PC9 cells assessed as reduction in cell viability after 24 to 72 hrs by MTT assay
MGC-803 = assay: Antiproliferative activity against human MGC-803 cells assessed as reduction in cell viability after 24 to 72 hrs by MTT assay
MCF7 = assay: Antiproliferative activity against human MCF7 cells assessed as reduction in cell viability after 24 to 72 hrs by MTT assay

COc1cc(C(=O)NC2CCCNC2)cc(OC)c1OC (stereo unspecified) [TROXIPIDE]
pIC50 (PC-3): < 4.00 | pIC50 (PC-9): < 4.00 | pIC50 (MGC-803): < 4.00 | pIC50 (MCF7): < 4.00

O=c1[nH]cc(F)c(=O)[nH]1 [FLUOROURACIL]
pIC50 (PC-3): 5.27 | pIC50 (PC-9): 5.39
